{"source": "patent US8518895B2", "about": "“Method for treating hyponatremia employing an SGLT2 inhibitor and composition containing same” (Bristol-Myers Squibb Company, priority 2008, dated 2013)", "key": {"diabetic patients": {"tested_on": "diabetic patients", "assay": "12-week treatment of diabetic patients: urine glucose, HbA1C, urine volume (Table 5)"}, "patients with diabetes": {"tested_on": "patients with diabetes", "conditions": "patients with diabetes, 5, 25 or 100 mg, FIG. 2", "text": "The levels of urine glucose of all subjects are shown in the plot and the mean urine glucose is in the darker lines."}, "type 2 diabetic patients": {"tested_on": "type 2 diabetic patients", "from_the_text": "C-aryl glucoside SGLT2 inhibitors are known to reduce blood glucose levels in diabetic patients, see U.S. Pat. No. 6,774,112, which is incorporated herein by reference in its entirety, but not known to increase urine volume. […] Metformin reduces plasma glucose concentration by non-renal mechanisms and is not known to induce glucosuria. […] On day 1 and day 14, the patients were examined for the levels of glucosuria and changes in urine volumes."}, "[1]": {"tested_on": "Healthy Normal Volunteers", "assay": "Urinary glucose excretion over 24 hr in healthy normal volunteers after SGLT2 inhibitors", "type": "in vivo, human"}, "[2]": {"conditions": "diabetic patients, 2.5-50 mg, after 12 weeks of treatment"}}, "data": [{"smiles": "CN(C)C(=N)N=C(N)N", "note": "[Metformin, metformin, reference compound]", "values": [{"measurement": "Urine Output (mL), change from baseline at week 12", "setting": "diabetic patients; Metformin group, N = 56, mean ± standard deviation", "value": "-95.84 ± 775.41", "unit": "mL"}, {"measurement": "HbA1C levels", "setting": "diabetic patients; patients treated with 1500 mg metformin", "value": 0.73, "unit": "%"}]}, {"smiles": "CCOc1ccc(Cc2cc([C@@H]3O[C@H](CO)[C@@H](O)[C@H](O)[C@H]3O)ccc2Cl)cc1", "note": "[dapagliflozin PGS]", "values": [{"measurement": "urine glucose excretion compared to placebo", "setting": "patients with diabetes", "value": "higher levels of urine glucose excretion"}, {"measurement": "fasting serum glucose (FSG) levels", "setting": "type 2 diabetic patients; two-week period", "value": "Dose-dependent reduction"}, {"measurement": "postprandial glucose levels in oral glucose tolerance tests (OGTT)", "setting": "type 2 diabetic patients; two-week period", "value": "reduced"}, {"measurement": "urine volumes", "setting": "type 2 diabetic patients; two-week period", "value": "no increase"}, {"measurement": "urinary glucose levels within a 24-hour time period", "setting": "type 2 diabetic patients; versus placebo, FIG. 3", "value": "increased"}, {"measurement": "Urine Output (mL), change from baseline at week 12", "setting": "diabetic patients; 2.5 mg, n = 59, mean ± standard deviation", "value": "106.62 ± 606.88", "unit": "mL"}, {"measurement": "Urine Output (mL), change from baseline at week 12", "setting": "diabetic patients; 5 mg, n = 58, mean ± standard deviation", "value": "339.96 ± 551.34", "unit": "mL"}, {"measurement": "Urine Output (mL), change from baseline at week 12", "setting": "diabetic patients; 10 mg, n = 47, mean ± standard deviation", "value": "374.49 ± 741.62", "unit": "mL"}, {"measurement": "Urine Output (mL), change from baseline at week 12", "setting": "diabetic patients; 20 mg, n = 59, mean ± standard deviation", "value": "374.91 ± 723.13", "unit": "mL"}, {"measurement": "Urine Output (mL), change from baseline at week 12", "setting": "diabetic patients; 50 mg, n = 56, mean ± standard deviation", "value": "470.26 ± 797.51", "unit": "mL"}, {"measurement": "increase in urine volume", "setting": "diabetic patients; diabetic patients treated for 12 weeks", "value": "5-20%"}, {"measurement": "OGT", "setting": "diabetic patients; [2]", "value": "improved"}, {"measurement": "glucose excreted in urine every day", "setting": "diabetic patients; [2]", "value": "50 to 60", "unit": "g"}, {"measurement": "reduced HbA1C levels", "setting": "diabetic patients; [2]", "value": "0.71-0.9%"}, {"measurement": "Side effects", "setting": "diabetic patients; observed in some individuals, 12 weeks", "value": "urinary tract infection, dizziness, or vaginal infection"}]}, {"smiles": "CCOc1ccc(Cc2cc([C@@H]3O[C@H](CO)[C@@H](O)[C@H](O)[C@H]3O)ccc2Cl)cc1", "note": "[Dapagliflozin, dapagliflozin]", "values": [{"measurement": "Glucose Output over 24 hr", "setting": "[1]; dose 5 mg", "value": "~32", "unit": "g"}, {"measurement": "Glucose Output over 24 hr", "setting": "[1]; dose 20 mg", "value": "~64", "unit": "g"}]}, {"smiles": "COc1ccc(Cc2sccc2O[C@@H]2O[C@H](CO)[C@@H](O)[C@H](O)[C@H]2O)cc1", "note": "[AVE 2268]", "values": [{"measurement": "Glucose Output over 24 hr", "setting": "[1]; dose 1200 mg", "value": 14, "unit": "g"}, {"measurement": "Glucose Output over 24 hr", "setting": "[1]; dose 2000 mg", "value": 21, "unit": "g"}]}]}
